Laboratory results from PMC10247784, “Physiological activation of human and mouse bitter taste receptors by bile acids” (Communications Biology, 2023).
“And” between values parts separate entries of the source, which are not always exact repeats. Identical values can stand only once.

Target: T1, human TAS2R14 (Homo sapiens, UniProt Q9NYV8)
T1 construct: expressed in transfected cells; host or cells: HEK293T-Gα16gust44
T1 sequence (Q9NYV8 1-317): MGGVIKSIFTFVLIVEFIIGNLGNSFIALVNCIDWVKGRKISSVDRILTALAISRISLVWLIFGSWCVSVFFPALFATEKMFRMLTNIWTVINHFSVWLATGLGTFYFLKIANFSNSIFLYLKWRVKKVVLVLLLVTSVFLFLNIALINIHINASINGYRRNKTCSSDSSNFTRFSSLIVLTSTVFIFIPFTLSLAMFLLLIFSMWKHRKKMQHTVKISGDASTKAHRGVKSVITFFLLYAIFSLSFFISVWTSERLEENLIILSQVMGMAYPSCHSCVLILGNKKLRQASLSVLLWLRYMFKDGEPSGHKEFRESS
Test: Calcium imaging assay (FLIPR), HEK293T-Gα16gust44 cells transfected with human TAS2R14
Type: cell-based
Conditions: for RLU: TAS2R14 trace
Outline: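 Calcium responses via FLIPR in receptor-transfected HEK293T-Gα16gust44 cells (Fluo-4-AM, 2.5 mM probenecid), after mock-signal subtraction and normalization to baseline and buffer (ΔF/F). Threshold concentration is the lowest dose differing from mock cells at p < 0.01 (Student's t-test), from three biological replicates in duplicate.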

## C[C@H](CCC(=O)NCCS(=O)(=O)O)[C@H]1CC[C@H]2[C@@H]3[C@H](O)C[C@@H]4C[C@H](O)CC[C@]4(C)[C@H]3C[C@H](O)[C@]12C [Taurocholic Acid, taurocholic acid]
TAS2R14, bile acids, mean
  Efficacy = maximal amplitude (ΔF/F): 0.2246
TAS2R14, bile acids, single replicates, listed as TCA
  Efficacy (maximal amplitude ΔF/F), individual data points: 0.1896 and 0.238 and 0.2462
TAS2R14, conc. 0,01 mM
  Δ F/F: -0.01734
TAS2R14, conc. 0,1 mM
  Δ F/F: -0.007315
TAS2R14, conc. 0,03 mM
  Δ F/F: -0.005139
TAS2R14, conc. 0,3 mM
  Δ F/F: 0.03332
TAS2R14, conc. 0,001 mM
  Δ F/F: -0.02529
TAS2R14, conc. 1 mM
  Δ F/F: 0.2246
TAS2R14, conc. 0,003 mM
  Δ F/F: -0.01812
Time (s) 0
  RLU: 0 RLU
Time (s) 2 (Taurocholic Acid 2.016)
  RLU: 15.4574 RLU
Time (s) 4 (Taurocholic Acid 4.016)
  RLU: -13.3747 RLU
Time (s) 6 (Taurocholic Acid 6.016)
  RLU: -38.8354 RLU
Time (s) 8 (Taurocholic Acid 8.016)
  RLU: -33.6332 RLU
Time (s) 12 (Taurocholic Acid 12.016)
  RLU: -53.4595 RLU
Time (s) 14 (Taurocholic Acid 14.016)
  RLU: -55.3521 RLU
Time (s) 16 (Taurocholic Acid 16.016)
  RLU: -65.1913 RLU
Time (s) 18 (Taurocholic Acid 18.016)
  RLU: -43.8232 RLU
Time (s) 18.797 (Chenodeoxycholic Acid 18.765)
  RLU: -59.7397 RLU
Time (s) 20.797 (Chenodeoxycholic Acid 20.781)
  RLU: -48.6104 RLU
Time (s) 22.797 (Chenodeoxycholic Acid 22.781)
  RLU: -37.2936 RLU
Time (s) 24.797 (Chenodeoxycholic Acid 24.781)
  RLU: -25.1873 RLU
Time (s) 26.797 (Chenodeoxycholic Acid 26.781)
  RLU: -30.6749 RLU
Time (s) 28.797 (Chenodeoxycholic Acid 28.781)
  RLU: 4.524 RLU
Time (s) 30.797 (Chenodeoxycholic Acid 30.781)
  RLU: -8.18 RLU
Time (s) 32.797 (Chenodeoxycholic Acid 32.781)
  RLU: 30.1537 RLU
Time (s) 34.797 (Chenodeoxycholic Acid 34.781)
  RLU: 70.0865 RLU
Time (s) 36.797 (Chenodeoxycholic Acid 36.781)
  RLU: 98.6425 RLU
Time (s) 38.797 (Chenodeoxycholic Acid 38.781)
  RLU: 134.228 RLU
Time (s) 40.797 (Chenodeoxycholic Acid 40.781)
  RLU: 192.709 RLU
Time (s) 42.797 (Chenodeoxycholic Acid 42.781)
  RLU: 232.913 RLU
Time (s) 44.797 (Chenodeoxycholic Acid 44.781)
  RLU: 243.453 RLU
Time (s) 46.797 (Chenodeoxycholic Acid 46.781)
  RLU: 297.017 RLU
Time (s) 48.797 (Chenodeoxycholic Acid 48.781)
  RLU: 343.953 RLU
Time (s) 50.797 (Chenodeoxycholic Acid 50.781)
  RLU: 379.622 RLU
Time (s) 52.797 (Chenodeoxycholic Acid 52.781)
  RLU: 398.833 RLU
Time (s) 54.797 (Chenodeoxycholic Acid 54.781)
  RLU: 459.728 RLU
Time (s) 56.797 (Chenodeoxycholic Acid 56.781)
  RLU: 470.92 RLU
Time (s) 58.797 (Chenodeoxycholic Acid 58.781)
  RLU: 515.163 RLU
Time (s) 60.797 (Chenodeoxycholic Acid 60.781)
  RLU: 529.36 RLU
Time (s) 62.797 (Chenodeoxycholic Acid 62.781)
  RLU: 543.404 RLU
Time (s) 64.797 (Chenodeoxycholic Acid 64.781)
  RLU: 572.542 RLU
Time (s) 66.797 (Chenodeoxycholic Acid 66.781)
  RLU: 570.299 RLU
Time (s) 68.797 (Chenodeoxycholic Acid 68.781)
  RLU: 602.865 RLU
Time (s) 70.797 (Chenodeoxycholic Acid 70.781)
  RLU: 609.474 RLU
Time (s) 72.797 (Chenodeoxycholic Acid 72.781)
  RLU: 663.572 RLU
Time (s) 74.797 (Chenodeoxycholic Acid 74.781)
  RLU: 688.158 RLU
Time (s) 76.797 (Chenodeoxycholic Acid 76.781)
  RLU: 696.58 RLU
Time (s) 78.797 (Chenodeoxycholic Acid 78.781)
  RLU: 702.313 RLU
Time (s) 80.797 (Chenodeoxycholic Acid 80.781)
  RLU: 724.676 RLU
Time (s) 82.797 (Chenodeoxycholic Acid 82.781)
  RLU: 729.222 RLU
Time (s) 84.797 (Chenodeoxycholic Acid 84.781)
  RLU: 755.668 RLU
Time (s) 86.797 (Chenodeoxycholic Acid 86.781)
  RLU: 758.133 RLU
Time (s) 88.797 (Chenodeoxycholic Acid 88.781)
  RLU: 801.791 RLU
Time (s) 90.797 (Chenodeoxycholic Acid 90.781)
  RLU: 813.667 RLU
Time (s) 92.797 (Chenodeoxycholic Acid 92.781)
  RLU: 823.99 RLU
Time (s) 94.797 (Chenodeoxycholic Acid 94.781)
  RLU: 849.724 RLU
Time (s) 96.797 (Chenodeoxycholic Acid 96.781)
  RLU: 840.46 RLU
Time (s) 98.797 (Chenodeoxycholic Acid 98.781)
  RLU: 832.423 RLU
Time (s) 100.797 (Chenodeoxycholic Acid 100.781)
  RLU: 870.888 RLU
Time (s) 102.797 (Chenodeoxycholic Acid 102.781)
  RLU: 887.784 RLU
Time (s) 104.797 (Chenodeoxycholic Acid 104.781)
  RLU: 895.487 RLU
Time (s) 106.797 (Chenodeoxycholic Acid 106.781)
  RLU: 886.141 RLU
Time (s) 108.797 (Chenodeoxycholic Acid 108.781)
  RLU: 931.883 RLU
Time (s) 110.797 (Chenodeoxycholic Acid 110.781)
  RLU: 935.64 RLU
Time (s) 112.797 (Chenodeoxycholic Acid 112.781)
  RLU: 971.794 RLU
Time (s) 114.797 (Chenodeoxycholic Acid 114.781)
  RLU: 962.409 RLU
Time (s) 116.797 (Chenodeoxycholic Acid 116.781)
  RLU: 993.706 RLU
Time (s) 118.797 (Chenodeoxycholic Acid 118.781)
  RLU: 1000.54 RLU
Time (s) 120.797 (Chenodeoxycholic Acid 120.781)
  RLU: 1025.82 RLU
Time (s) 122.797 (Chenodeoxycholic Acid 122.781)
  RLU: 1039.5 RLU
Time (s) 124.797 (Chenodeoxycholic Acid 124.781)
  RLU: 1041.39 RLU
Time (s) 126.797 (Chenodeoxycholic Acid 126.781)
  RLU: 1050.25 RLU
Time (s) 128.797 (Chenodeoxycholic Acid 128.781)
  RLU: 1043.78 RLU
Time (s) 130.797 (Chenodeoxycholic Acid 130.781)
  RLU: 1042.75 RLU
Time (s) 132.797 (Chenodeoxycholic Acid 132.781)
  RLU: 1039.88 RLU
Time (s) 134.797 (Chenodeoxycholic Acid 134.781)
  RLU: 1050.77 RLU
Time (s) 136.797 (Chenodeoxycholic Acid 136.781)
  RLU: 1036.12 RLU
Time (s) 137.562 (Taurocholic Acid 137.563, Chenodeoxycholic Acid 137.546)
  RLU: 1048.18 RLU
Time (s) 143.578 (Taurocholic Acid 143.563, Chenodeoxycholic Acid 143.546)
  RLU: 1008.4 RLU
Time (s) 149.578 (Taurocholic Acid 149.563, Chenodeoxycholic Acid 149.546)
  RLU: 998.739 RLU
Time (s) 155.578 (Taurocholic Acid 155.563, Chenodeoxycholic Acid 155.546)
  RLU: 977.028 RLU
Time (s) 161.578 (Taurocholic Acid 161.563, Chenodeoxycholic Acid 161.546)
  RLU: 958.674 RLU
Time (s) 167.578 (Taurocholic Acid 167.563, Chenodeoxycholic Acid 167.546)
  RLU: 918.668 RLU
Time (s) 173.578 (Taurocholic Acid 173.563, Chenodeoxycholic Acid 173.546)
  RLU: 888.356 RLU
Time (s) 179.578 (Taurocholic Acid 179.563, Chenodeoxycholic Acid 179.546)
  RLU: 847.479 RLU
Time (s) 191.578 (Taurocholic Acid 191.563, Chenodeoxycholic Acid 191.546)
  RLU: 745.479 RLU
Time (s) 197.578 (Taurocholic Acid 197.563, Chenodeoxycholic Acid 197.546)
  RLU: 696.127 RLU
Time (s) 209.578 (Taurocholic Acid 209.563, Chenodeoxycholic Acid 209.546)
  RLU: 643.487 RLU
Time (s) 221.578 (Taurocholic Acid 221.563, Chenodeoxycholic Acid 221.546)
  RLU: 526.781 RLU
Time (s) 233.578 (Taurocholic Acid 233.563, Chenodeoxycholic Acid 233.546)
  RLU: 416.225 RLU
Time (s) 239.578 (Taurocholic Acid 239.563, Chenodeoxycholic Acid 239.546)
  RLU: 342.018 RLU
Time (s) 245.578 (Taurocholic Acid 245.563, Chenodeoxycholic Acid 245.546)
  RLU: 303.535 RLU
Time (s) 293.578 (Taurocholic Acid 293.563, Chenodeoxycholic Acid 293.546)
  RLU: 127.213 RLU
Time (s) 299.578 (Taurocholic Acid 299.563, Chenodeoxycholic Acid 299.546)
  RLU: 108.412 RLU
Time (s) 305.578 (Taurocholic Acid 305.563, Chenodeoxycholic Acid 305.546)
  RLU: 98.929 RLU
Time (s) 311.578 (Taurocholic Acid 311.563, Chenodeoxycholic Acid 311.546)
  RLU: 88.6159 RLU
Time (s) 317.578 (Taurocholic Acid 317.563, Chenodeoxycholic Acid 317.546)
  RLU: 79.3923 RLU
Time (s) 323.578 (Taurocholic Acid 323.563, Chenodeoxycholic Acid 323.546)
  RLU: 80.4704 RLU
Time (s) 329.578 (Taurocholic Acid 329.563, Chenodeoxycholic Acid 329.546)
  RLU: 68.4196 RLU
Time (s) 335.578 (Taurocholic Acid 335.563, Chenodeoxycholic Acid 335.546)
  RLU: 88.4103 RLU
Time (s) 341.578 (Taurocholic Acid 341.563, Chenodeoxycholic Acid 341.546)
  RLU: 53.5929 RLU
Time (s) 347.578 (Taurocholic Acid 347.563, Chenodeoxycholic Acid 347.546)
  RLU: 48.7046 RLU
Time (s) 353.578 (Taurocholic Acid 353.563, Chenodeoxycholic Acid 353.546)
  RLU: 68.797 RLU
Time (s) 359.578 (Taurocholic Acid 359.563, Chenodeoxycholic Acid 359.546)
  RLU: 47.7517 RLU
Lowest concentration with significantly increased fluorescence vs empty vector (p < 0.01)
  Activation threshold concentration TAS2R14: 300 µM
